The values below come from patent publication US10532987B2, “Compounds and methods for inducing browning of white adipose tissue” (GUANGZHOU INSTITUTES OF BIOMEDICINE AND HEALTH, CHINESE …, priority 2015, dated 2020).

The subject of the experiment is Ucp1. Nature of the experiment: UCP1 luciferase assay (Ucp1 up-regulation in differentiated inguinal adipocytes of Ucp1-luciferase knock-in mice). The settings on record: Mus musculus, Adipocyte, 48 h, 2 days treatment, luciferase activity, read-out: Ucp1 activation fold/corresponding concentration. In kind it is cell-based. Here is the method:
TEST EXAMPLE 1 UCP1 Luciferase Assay
Evaluating Compounds that Induce Ucp1 Up-Regulation
Ucp1-luciferase knock-in mice will be housed in cages and fed on standard chow diets (the detailed procedures please see reference 14). The 8-week-old mice will be killed by the cervical dislocation and put into 75% alcohol for 5 minutes. The inguinal adipose tissue will be dissected out and transferred to the three 10-cm petri dishes and washed with PBS for three times. The adipose tissue will be dissected and minced on a 10-cm petri dish for several minutes and then pipetted into 20 ml 0.1% collagenase solution in 50 ml conical tubes and digested at 37° C. for 1 hour. Next, 20 ml culture medium will be added to terminate the digestion and centrifuged for 10 minutes at 1000 rpm respectively. The supernatants will be removed and the pellets re-suspended in 10 mL culture medium and plated into 10-cm plates. The cells will be left to adhere to the plates overnight and the culture medium will be changed every other day. The confluent cells will be trypsinized, counted and plated to 24-well plate (5×10^4 cells/well). The cells will be washed and re-fed the next day (as day −2). Two days later (day 0), the cells will usually become confluent and be induced to differentiate with MDIR medium. On day 2, the medium will be changed to IR medium and re-fed every 2 days. Complete differentiation is usually achieved by day 10. On day 10, the medium will be changed to the culture medium of 10% FBS/DMEM with indicated drugs along with the positive and negative controls for 2 days. The media will be removed and the cells washed with 1 ml PBS per well three times. Then 100 μl lysis buffer will be used to lyse the cells at 4° C. for 1 hour. 30 μl culture medium, 30 μl cell lysates and 60 μl Steady-Glo® Reagent were added to a well of 96-well-plate and the luminescence will be measured using a luminometer. The protein concentration will be determined using 20 μl cell lysates and specific activity of luciferase will be tabulated and data analyzed.

Turning to `CC(C)Oc1ccc(-c2csc(Nc3ccccn3)n2)cc1` [Compound 42, 4-(4-isopropoxyphenyl)-N-(pyridin-2-yl)thiazol-2-amine], the fold induction at 1 µM stood at 2.

Regarding `COc1ccc(-c2csc(NC(=O)[C@@H]3CCCN3)n2)cc1OC` [Compound 70, (S)—N-(4-(3,4-dimethoxyphenyl)thiazol-2-yl)pyrrolidine-2-carboxamide], the fold induction at 0.3 µM came out at 1.7.

On to `CS(=O)(=O)c1ccc(-c2csc(Nc3ccccn3)n2)cc1` [Compound 51, 4-(4-(methylsulfonyl)phenyl)-N-(pyridin-2-yl)thiazol-2-amine], for which the fold induction at 1 µM stood at 3.9.

Take `COc1ccc(-c2csc(Nc3cc(C)ccn3)n2)cc1OC` [Compound 2, 4-(3,4-dimethoxyphenyl)-N-(4-methylpyridin-2-yl)thiazol-2-amine]: the fold induction at 1 µM is 1.1.

With `O=[N+]([O-])c1ccc(-c2csc(Nc3ccccn3)n2)cc1` [Compound 34, 4-(4-nitrophenyl)-N-(pyridin-2-yl)thiazol-2-amine], the fold induction at 1 µM came to 3.8.

Turning to `COc1ccc(-c2csc(Nc3ccccc3)n2)cc1OC` [Compound 20, 4-(3,4-dimethoxyphenyl)-N-phenylthiazol-2-amine], the fold induction at 3 µM amounted to 3.

On to `CC(C)NC(=O)Nc1ccc(-c2csc(Nc3ccccn3)n2)cc1` [Compound 37, 1-isopropyl-3-(4-(2-(pyridin-2-ylamino)thiazol-4-yl)phenyl)urea], for which the fold induction at 3 µM is 2.

In the case of `O=C(Nc1cccnc1)c1ccc(-c2csc(Nc3ccccn3)n2)cc1` [Compound 64, 4-(2-(pyridin-2-ylamino)thiazol-4-yl)-N-(pyridin-3-yl)benzamide], the fold induction at 1 µM was 1.1.

With `CC(=O)c1ccc(-c2csc(Nc3ccccn3)n2)cc1` [Compound 73, 1-(4-(2-(pyridin-2-ylamino)thiazol-4-yl)phenyl)ethanone], the fold induction at 3 µM amounted to 1.2.

Consider `CNc1nc(-c2ccc(OC)c(OC)c2)cs1` [Compound 31, 4-(3,4-dimethoxyphenyl)-N-methylthiazol-2-amine], for which the fold induction at 1 µM came out at 1.1.

`CCNC(=O)c1ccc(-c2csc(Nc3ccccn3)n2)cc1` [Compound 53, N-ethyl-4-(2-(pyridin-2-ylamino)thiazol-4-yl)benzamide]: the fold induction at 1 µM was found to be 3.

Turning to `COc1ccc(-c2csc(Nc3ccc(C)cn3)n2)cc1OC` [Compound 11, 4-(3,4-dimethoxyphenyl)-N-(5-methylpyridin-2-yl)thiazol-2-amine], the fold induction at 1 µM is 2.

On to `c1ccc(Nc2nc(-c3ccc4c(c3)OCO4)cs2)nc1` [Compound 82, 4-(benzo[d][1,3]dioxol-5-yl)-N-(pyridin-2-yl)thiazol-2-amine], for which the fold induction at 1 µM came out at 2.4.

As for `CC(=O)N1CCC(c2ccc(-c3csc(Nc4ccccn4)n3)cc2)CC1` [Compound 61, 1-(4-(4-(2-(pyridin-2-ylamino)thiazol-4-yl)phenyl)piperidin-1-yl)ethanone], the fold induction at 3 µM was 3.2.

For `O=C(c1ccc(-c2csc(Nc3ccccn3)n2)cc1)N1CCOCC1` [Compound 52, morpholino(4-(2-(pyridin-2-ylamino)thiazol-4-yl)phenyl)methanone], the fold induction at 1 µM was determined as 5.1.

With `c1ccc(Nc2nc(-c3ccc(-c4nn[nH]n4)cc3)cs2)nc1` [Compound 77, 4-(4-(2H-tetrazol-5-yl)phenyl)-N-(pyridin-2-yl)thiazol-2-amine], the fold induction at 3 µM is 1.1.

In the case of `CCN(CC)C(=O)c1ccc(-c2csc(Nc3ccccn3)n2)cc1` [Compound 66, N,N-diethyl-4-(2-(pyridin-2-ylamino)thiazol-4-yl)benzamide], the fold induction at 3 µM turned out to be 1.

Take `c1ccc(-c2ccc(-c3csc(Nc4ccccn4)n3)cc2)cc1` [Compound 50, 4-(biphenyl-4-yl)-N-(pyridin-2-yl)thiazol-2-amine]: the fold induction at 3 µM is 2.4.

With `Brc1ccc(-c2csc(Nc3ccccn3)n2)cc1` [Compound 40, 4-(4-bromophenyl)-N-(pyridin-2-yl)thiazol-2-amine], the fold induction at 3 µM turned out to be 3.

Consider `CCOC(=O)[C@@H]1CCCN1C(=O)c1ccc(-c2csc(Nc3ccccn3)n2)cc1` [Compound 67, (S)-ethyl 1-(4-(2-(pyridin-2-ylamino)thiazol-4-yl)benzoyl)pyrrolidine-2-carboxylate], for which the fold induction at 3 µM was 3.1.

As for `CC(=O)Nc1ccc(-c2csc(Nc3ccccn3)n2)cc1` [Compound 36, N-(4-(2-(pyridin-2-ylamino)thiazol-4-yl)phenyl)acetamide], the fold induction at 1 µM was 3.8.

Turning to `COc1ccc(-c2csc(Nc3ncccc3C)n2)cc1OC` [Compound 12, 4-(3,4-dimethoxyphenyl)-N-(3-methylpyridin-2-yl)thiazol-2-amine], the fold induction at 1 µM turned out to be 1.2.

As to `Brc1cc(N2CCOCC2)ccc1-c1csc(Nc2ccccn2)n1` [Compound 28, 4-(2-bromo-4-morpholinophenyl)-N-(pyridin-2-yl)thiazol-2-amine], the fold induction at 3 µM turned out to be 3.2.

As to `COc1ccc(-c2csc(Nc3ccccn3)n2)c(OC)c1` [Compound 15, 4-(2,4-dimethoxyphenyl)-N-(pyridin-2-yl)thiazol-2-amine], the fold induction at 0.3 µM was found to be 1.4.

With `COc1ccc(-c2csc(NC(=O)c3ccccc3)n2)cc1OC` [Compound 30, N-(4-(3,4-dimethoxyphenyl)thiazol-2-yl)benzamide], the fold induction at 1 µM was determined as 1.1.

For `N#Cc1cccc(-c2csc(Nc3ccccn3)n2)c1` [Compound 5, 3-(2-(pyridin-2-ylamino)thiazol-4-yl)benzonitrile], the fold induction at 3 µM stood at 5.4.

For the molecule `O=C(Nc1ccccc1)c1ccc(-c2csc(Nc3ccccn3)n2)cc1` [Compound 58, N-phenyl-4-(2-(pyridin-2-ylamino)thiazol-4-yl)benzamide], the fold induction at 3 µM stood at 1.4.

Turning to `CCNC(=O)COc1ccc(-c2csc(Nc3ccccn3)n2)cc1` [Compound 47, N-ethyl-2-(4-(2-(pyridin-2-ylamino)thiazol-4-yl)phenoxy)acetamide], the fold induction at 3 µM is 2.4.

In the case of `c1ccc(Nc2nc(-c3ccc(CN4CCCCC4)cc3)cs2)nc1` [Compound 72, 4-(4-(piperidin-1-ylmethyl)phenyl)-N-(pyridin-2-yl)thiazol-2-amine], the fold induction at 3 µM came to 1.8.

Turning to `c1ccc(CNc2ccc(-c3csc(Nc4ccccn4)n3)cc2)cc1` [Compound 55, 4-(4-(benzylamino)phenyl)-N-(pyridin-2-yl)thiazol-2-amine], the fold induction at 3 µM was found to be 2.

Consider `CCCCOc1ccc(-c2csc(Nc3ccccn3)n2)cc1` [Compound 43, 4-(4-butoxyphenyl)-N-(pyridin-2-yl)thiazol-2-amine], for which the fold induction at 1 µM came to 2.8.

In the case of `C#Cc1ccc(-c2csc(Nc3ccccn3)n2)cc1` [Compound 78, 4-(4-ethynylphenyl)-N-(pyridin-2-yl)thiazol-2-amine], the fold induction at 1 µM stood at 2.3.

Turning to `COc1ccc(-c2csc(Nc3cc4ccccc4cn3)n2)cc1OC` [Compound 6, 4-(3,4-dimethoxyphenyl)-N-(isoquinolin-3-yl)thiazol-2-amine], the fold induction at 1 µM amounted to 1.2.

As to `c1ccc(Nc2nc(-c3c[nH]c4ccccc34)cs2)nc1` [Compound 7, 4-(1H-indol-3-yl)-N-(pyridin-2-yl)thiazol-2-amine], the fold induction at 0.3 µM was 1.2.

On to `COc1ccc(-c2csc(Nc3cccnc3)n2)cc1OC` [Compound 33, 4-(3,4-dimethoxyphenyl)-N-(pyridin-3-yl)thiazol-2-amine], for which the fold induction at 3 µM worked out at 2.

On to `Oc1ccc(-c2csc(Nc3ccccn3)n2)cc1` [Compound 41, 4-(2-(pyridin-2-ylamino)thiazol-4-yl)phenol], for which the fold induction at 1 µM worked out at 3.3.

Consider `c1ccc(Nc2nc(-c3ccncc3)cs2)nc1` [Compound 26, N-(pyridin-2-yl)-4-(pyridin-4-yl)thiazol-2-amine], for which the fold induction at 3 µM came out at 3.5.

Turning to `O=C(O)COc1ccc(-c2csc(Nc3ccccn3)n2)cc1` [Compound 45, 2-(4-(2-(pyridin-2-ylamino)thiazol-4-yl)phenoxy)acetic acid], the fold induction at 0.3 µM turned out to be 1.3.

In the case of `COc1ccc(-c2csc(Nc3cc(Cl)ccn3)n2)cc1OC` [Compound 13, N-(4-chloropyridin-2-yl)-4-(3,4-dimethoxyphenyl)thiazol-2-amine], the fold induction at 3 µM was found to be 1.6.

In the case of `O=C(Nc1ccccn1)c1ccc(-c2csc(Nc3ccccn3)n2)cc1` [Compound 69, N-(pyridin-2-yl)-4-(2-(pyridin-2-ylamino)thiazol-4-yl)benzamide], the fold induction at 3 µM came to 4.6.

With `O=C(COc1ccc(-c2csc(Nc3ccccn3)n2)cc1)N1CCOCC1` [Compound 46, 1-morpholino-2-(4-(2-(pyridin-2-ylamino)thiazol-4-yl)phenoxy)ethanone], the fold induction at 3 µM is 1.7.
